Measured values published in patent US20160192658A1 (priority 2013, published 2016).

Test: in vitro
Conditions: human

Question: For NC(=O)c1ncn([C@@H]2O[C@H](CO)[C@@H](O)[C@H]2O)n1 [Ribavirin, ribavirin], which CC50 at 5 days is on record?
Answer: > 200 µM
